Laboratory results from ChEMBL document CHEMBL1201862, “PubChem BioAssay data set” (2004).
Several values for one entry are separate records, joined by “and”; a condition that tells them apart may be missing. Equal values may be shown once.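 Results reflect a 48-hour exposure of cells in 96-well plates to compound at five concentrations. The concentration for 50% growth inhibition is given as GI50.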 Activity calls are given as the source filed them. Rule as the data show it: active = GI50 up to about 1.1 µM and inactive = higher.

Assays:
Test in all cases: NCI-60 cell line screen, 48 h
OVCAR-3 = tested on: OVCAR-3
SN12C = tested on: SN12C
OVCAR-4 = tested on: OVCAR-4
HOP-62 = tested on: HOP-62
MOLT-4 = tested on: MOLT-4
NCI-H522 = tested on: NCI-H522
KM12 = tested on: KM12
UACC-62 = tested on: UACC-62
NCI-H460 = tested on: NCI-H460
SF-295 = tested on: SF-295
UO-31 = tested on: UO-31
RPMI-8226 = tested on: RPMI-8226
U-251 = tested on: U-251
SK-OV-3 = tested on: SK-OV-3
SK-MEL-28 = tested on: SK-MEL-28
HL-60 = tested on: HL-60
PC-3 = tested on: PC-3
SNB-19 = tested on: SNB-19
M14 = tested on: M14
OVCAR-8 = tested on: OVCAR-8
NCI/ADR-RES = tested on: NCI/ADR-RES
SK-MEL-2 = tested on: SK-MEL-2
A549 = tested on: A549
A498 = tested on: A498
HCT-116 = tested on: HCT-116
HCT-15 = tested on: HCT-15
DU-145 = tested on: DU-145
COLO 205 = tested on: COLO 205
786-0 = tested on: 786-0
MDA-MB-231 = tested on: MDA-MB-231
EKVX = tested on: EKVX
Malme-3M = tested on: Malme-3M
SK-MEL-5 = tested on: SK-MEL-5
Hs-578T = tested on: Hs-578T
BT-549 = tested on: BT-549
SF-268 = tested on: SF-268
RXF 393 = tested on: RXF 393
UACC-257 = tested on: UACC-257
CCRF-CEM = tested on: CCRF-CEM
HT-29 = tested on: HT-29
MDA-N = tested on: MDA-N
OVCAR-5 = tested on: OVCAR-5
NCI-H226 = tested on: NCI-H226
TK-10 = tested on: TK-10
IGROV-1 = tested on: IGROV-1
SW-620 = tested on: SW-620
CAKI-1 = tested on: CAKI-1
MDA-MB-435 = tested on: MDA-MB-435
K562 = tested on: K562
ACHN = tested on: ACHN
NCI-H23 = tested on: NCI-H23
HOP-92 = tested on: HOP-92
SF-539 = tested on: SF-539
HCC 2998 = tested on: HCC 2998
SNB-75 = tested on: SNB-75
MCF7 = tested on: MCF7
T47D = tested on: T47D
LOX IMVI = tested on: LOX IMVI
SR = tested on: SR

## CC1CN(C)c2ccccc2N=C1NN (stereo unspecified)
OVCAR-3
  GI50: > 100 µM (inactive)
SN12C
  GI50: > 100 µM (inactive)
OVCAR-4
  GI50: > 100 µM (inactive)
HOP-62
  GI50: > 100 µM (inactive)
MOLT-4
  GI50: > 100 µM (inactive)
NCI-H522
  GI50: > 100 µM (inactive)
KM12
  GI50: > 100 µM (inactive)
UACC-62
  GI50: > 100 µM (inactive)
NCI-H460
  GI50: > 100 µM (inactive)
SF-295
  GI50: > 100 µM (inactive)
UO-31
  GI50: > 100 µM (inactive)
RPMI-8226
  GI50: > 100 µM (inactive)
U-251
  GI50: > 100 µM (inactive)
SK-OV-3
  GI50: > 100 µM (inactive)
SK-MEL-28
  GI50: > 100 µM (inactive)
HL-60
  GI50: > 100 µM (inactive)
PC-3
  GI50: > 100 µM (inactive)
SNB-19
  GI50: > 100 µM (inactive)
M14
  GI50: > 100 µM (inactive)
OVCAR-8
  GI50: > 100 µM (inactive)
NCI/ADR-RES
  GI50: > 100 µM (inactive)
SK-MEL-2
  GI50: > 100 µM (inactive)
A549
  GI50: > 100 µM (inactive)
A498
  GI50: > 100 µM (inactive)
HCT-116
  GI50: > 100 µM (inactive)
HCT-15
  GI50: > 100 µM
DU-145
  GI50: > 100 µM (inactive)
COLO 205
  GI50: > 100 µM (inactive)
786-0
  GI50: > 100 µM (inactive)
MDA-MB-231
  GI50: > 100 µM (inactive)
EKVX
  GI50: > 100 µM (inactive)
Malme-3M
  GI50: > 100 µM (inactive)
SK-MEL-5
  GI50: > 100 µM (inactive)
Hs-578T
  GI50: > 100 µM (inactive)
BT-549
  GI50: > 100 µM (inactive)
SF-268
  GI50: > 100 µM (inactive)
RXF 393
  GI50: 0.217 µM (active)
UACC-257
  GI50: > 100 µM (inactive)
CCRF-CEM
  GI50: 87.5 µM (inactive)
HT-29
  GI50: > 100 µM (inactive)
MDA-N
  GI50: > 100 µM (inactive)
OVCAR-5
  GI50: > 100 µM (inactive)
NCI-H226
  GI50: > 100 µM (inactive)
TK-10
  GI50: > 100 µM (inactive)
IGROV-1
  GI50: > 100 µM (inactive)
SW-620
  GI50: > 100 µM (inactive)
CAKI-1
  GI50: > 100 µM (inactive)
MDA-MB-435
  GI50: > 100 µM (inactive)
K562
  GI50: 88.3 µM (inactive)
ACHN
  GI50: > 100 µM (inactive)
NCI-H23
  GI50: > 100 µM (inactive)

## CCOC(=O)[C@]1(OC(C)=O)C[C@H](OC(C)=O)[C@@H](C(F)COP(=O)(OCc2ccccc2)OCc2ccccc2)O1 (stereo partly specified)
SN12C
  GI50: > 100 µM (inactive)
HOP-62
  GI50: > 100 µM (inactive)
MOLT-4
  GI50: > 100 µM (inactive)
HOP-92
  GI50: 18.5 µM (inactive)
RPMI-8226
  GI50: 19.8 µM (inactive) and 25.9 µM (inactive)
SK-OV-3
  GI50: > 100 µM (inactive)
SK-MEL-28
  GI50: > 100 µM (inactive)
PC-3
  GI50: 32.4 µM (inactive) and 58.6 µM (inactive)
OVCAR-8
  GI50: > 100 µM (inactive)
NCI/ADR-RES
  GI50: > 100 µM (inactive)
SF-539
  GI50: > 100 µM (inactive)
A549
  GI50: > 100 µM (inactive)
DU-145
  GI50: > 100 µM (inactive)
MDA-MB-231
  GI50: 57.3 µM (inactive)
SK-MEL-5
  GI50: > 100 µM (inactive)
Hs-578T
  GI50: > 100 µM (inactive)
BT-549
  GI50: > 100 µM (inactive)
SF-268
  GI50: > 100 µM (inactive)
UACC-257
  GI50: 76.2 µM (inactive)
CCRF-CEM
  GI50: 72.9 µM (inactive) and 49 µM (inactive)
MDA-N
  GI50: > 100 µM (inactive)
NCI-H226
  GI50: > 100 µM (inactive)
CAKI-1
  GI50: > 100 µM (inactive)
HCC 2998
  GI50: 76.2 µM (inactive)
K562
  GI50: 71.4 µM (inactive)
SNB-75
  GI50: > 100 µM (inactive)

## O=[N+]([O-])c1c(Br)cc(Br)c2c1Nc1c(ccc(Cl)c1Cl)S2
OVCAR-3
  GI50: 4.8 µM (inactive)
SN12C
  GI50: 13.8 µM (inactive)
OVCAR-4
  GI50: 13.9 µM (inactive)
HOP-62
  GI50: 18.8 µM (inactive)
MOLT-4
  GI50: 3.06 µM (inactive)
NCI-H522
  GI50: 6.53 µM (inactive)
HOP-92
  GI50: 18.7 µM (inactive)
KM12
  GI50: 5.89 µM (inactive)
UACC-62
  GI50: 16 µM (inactive)
NCI-H460
  GI50: 17.8 µM (inactive)
SF-295
  GI50: 20.7 µM (inactive)
UO-31
  GI50: 7.91 µM (inactive)
RPMI-8226
  GI50: 14.4 µM (inactive)
U-251
  GI50: 17.9 µM (inactive)
SK-OV-3
  GI50: 19.6 µM (inactive)
SK-MEL-28
  GI50: 16.6 µM (inactive)
HL-60
  GI50: 2.85 µM (inactive)
PC-3
  GI50: 17.7 µM (inactive)
SNB-19
  GI50: 18.3 µM (inactive)
M14
  GI50: 11.4 µM (inactive)
OVCAR-8
  GI50: 2.79 µM (inactive)
NCI/ADR-RES
  GI50: 29.5 µM (inactive)
SF-539
  GI50: 22.2 µM (inactive)
SK-MEL-2
  GI50: 18.5 µM (inactive)
A549
  GI50: 20.2 µM (inactive)
A498
  GI50: 21.1 µM (inactive)
HCT-116
  GI50: 6.37 µM (inactive)
HCT-15
  GI50: 16.9 µM
DU-145
  GI50: 14.1 µM (inactive)
COLO 205
  GI50: 11.9 µM (inactive)
786-0
  GI50: 9.18 µM (inactive)
MCF7
  GI50: 2.87 µM (inactive)
MDA-MB-231
  GI50: 13.2 µM (inactive)
EKVX
  GI50: 16.6 µM (inactive)
Malme-3M
  GI50: 13.4 µM (inactive)
SK-MEL-5
  GI50: 13.6 µM (inactive)
Hs-578T
  GI50: 25.1 µM (inactive)
BT-549
  GI50: 2.88 µM (inactive)
T47D
  GI50: 1.61 µM (inactive)
SF-268
  GI50: 16.3 µM (inactive)
RXF 393
  GI50: 19.6 µM (inactive)
UACC-257
  GI50: 8.49 µM (inactive)
CCRF-CEM
  GI50: 2.39 µM (inactive)
HT-29
  GI50: 11.7 µM (inactive)
OVCAR-5
  GI50: 17.9 µM (inactive)
NCI-H226
  GI50: 5.96 µM (inactive)
TK-10
  GI50: 22.5 µM (inactive)
IGROV-1
  GI50: 14.9 µM (inactive)
LOX IMVI
  GI50: 2.34 µM (inactive)
SW-620
  GI50: 7.14 µM (inactive)
CAKI-1
  GI50: 16.5 µM (inactive)
MDA-MB-435
  GI50: 15.5 µM (inactive)
HCC 2998
  GI50: 12.4 µM (inactive)
SR
  GI50: 5.86 µM (inactive)
K562
  GI50: 3.45 µM (inactive)
ACHN
  GI50: 16.8 µM (inactive)
SNB-75
  GI50: 36.5 µM (inactive)
NCI-H23
  GI50: 14.4 µM (inactive)

## O=c1cc(NCC2CCCCC2)[nH]c(=O)[nH]1
OVCAR-3
  GI50: > 100 µM (inactive)
SN12C
  GI50: > 100 µM (inactive)
OVCAR-4
  GI50: > 100 µM (inactive)
HOP-62
  GI50: > 100 µM (inactive)
HOP-92
  GI50: 95.1 µM (inactive)
KM12
  GI50: > 100 µM (inactive)
NCI-H460
  GI50: > 100 µM (inactive)
SF-295
  GI50: > 100 µM (inactive)
UO-31
  GI50: > 100 µM (inactive)
RPMI-8226
  GI50: > 100 µM (inactive)
U-251
  GI50: > 100 µM (inactive)
SK-MEL-28
  GI50: > 100 µM (inactive)
HL-60
  GI50: > 100 µM (inactive)
PC-3
  GI50: > 100 µM (inactive)
SNB-19
  GI50: > 100 µM (inactive)
M14
  GI50: > 100 µM (inactive)
OVCAR-8
  GI50: > 100 µM (inactive)
NCI/ADR-RES
  GI50: > 100 µM (inactive)
SF-539
  GI50: > 100 µM (inactive)
A549
  GI50: > 100 µM (inactive)
A498
  GI50: > 100 µM (inactive)
HCT-116
  GI50: > 100 µM (inactive)
HCT-15
  GI50: > 100 µM
DU-145
  GI50: > 100 µM (inactive)
COLO 205
  GI50: > 100 µM (inactive)
786-0
  GI50: > 100 µM (inactive)
MCF7
  GI50: > 100 µM (inactive)
MDA-MB-231
  GI50: > 100 µM (inactive)
EKVX
  GI50: > 100 µM (inactive)
Malme-3M
  GI50: > 100 µM (inactive)
SK-MEL-5
  GI50: > 100 µM (inactive)
Hs-578T
  GI50: > 100 µM (inactive)
BT-549
  GI50: > 100 µM (inactive)
SF-268
  GI50: > 100 µM (inactive)
RXF 393
  GI50: > 100 µM (inactive)
UACC-257
  GI50: > 100 µM (inactive)
CCRF-CEM
  GI50: > 100 µM (inactive)
MDA-N
  GI50: > 100 µM (inactive)
OVCAR-5
  GI50: > 100 µM (inactive)
NCI-H226
  GI50: > 100 µM (inactive)
TK-10
  GI50: > 100 µM (inactive)
IGROV-1
  GI50: > 100 µM (inactive)
LOX IMVI
  GI50: > 100 µM (inactive)
SW-620
  GI50: > 100 µM (inactive)
MDA-MB-435
  GI50: > 100 µM (inactive)
HCC 2998
  GI50: > 100 µM (inactive)
SR
  GI50: > 100 µM (inactive)
K562
  GI50: > 100 µM (inactive)
ACHN
  GI50: > 100 µM (inactive)
SNB-75
  GI50: > 100 µM (inactive)
NCI-H23
  GI50: > 100 µM (inactive)
